Experimental data published in US5681833A, “Benzodiazepine derivatives” (Merck, Sharp & Dohme Ltd., priority 1992, dated 1997).
pIC50: −log10 of the molar value. Like-named read-outs stand apart in the source and are kept apart here.

Key:
CCK receptor (brain) = target: T1, CCK receptor (brain) (Cavia porcellus, UniProt H0VZC5); assay: CCK Receptor Binding (Brain), inhibition of specific 125I-CCK-8 binding; parameters: species or system guinea pig (male Hartley)
T1 construct: the cortex was removed and homogenized in 25 mL ice-cold 0.32M sucrose; from tissue; host or cells: cortex of male Hartley guinea pigs, P2 membranes
T1 sequence (H0VZC5 1-426): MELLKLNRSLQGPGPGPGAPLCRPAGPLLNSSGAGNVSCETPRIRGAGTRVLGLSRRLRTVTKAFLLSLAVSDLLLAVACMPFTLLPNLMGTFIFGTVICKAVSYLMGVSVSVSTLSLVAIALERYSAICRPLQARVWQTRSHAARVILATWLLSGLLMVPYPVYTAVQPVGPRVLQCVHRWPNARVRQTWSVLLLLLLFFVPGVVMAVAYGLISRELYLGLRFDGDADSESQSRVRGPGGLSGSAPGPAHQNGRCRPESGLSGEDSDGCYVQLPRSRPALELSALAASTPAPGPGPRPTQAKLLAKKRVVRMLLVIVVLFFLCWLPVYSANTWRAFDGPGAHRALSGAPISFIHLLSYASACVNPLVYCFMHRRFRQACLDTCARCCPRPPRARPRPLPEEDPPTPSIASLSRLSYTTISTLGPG
Description: 2. CCK Receptor Binding (Brain)
CCK-8 sulphated was radiolabelled and the binding was performed according to the description for the pancreas method with minor modifications.
Male Hartley guinea pigs (300-500 g) were sacrificed by decapitation and the cortex was removed and homogenized in 25 mL ice-cold 0.32M sucrose. The homogenates were centrifuged at 1000 g for 10 minutes and the resulting supernatant was recentrifuged at 20,000 g for 20 minutes. The P2 pellet was resuspended in binding assay buffer (20mM HEPES, 5 mM MgCl2, 0.25 mg/ml bacitracin, 1 mM EGTA pH 6.5 at 25° C.), using a Teflon (trademark) homogenizer (5 strokes at 500 rpm) to give a final concentration of 10 mg original wet weight/1.2 ml buffer. […] All assays were run in duplicate. The reaction mixtures were incubated at 25° C. for 2 hours and then the reaction was terminated by rapid filtration (Brandell 24 well cell harvester) on Whatman GF/C filters with 3×5 ml washes of cold 100 mM NaCl. The radioactivity on the filters was counted with a LKB gamma counter.

CCK receptor (pancreas) = target: T2, CCK receptor (pancreas) (Rattus norvegicus, UniProt P30551); assay: CCK Receptor Binding (Pancreas), inhibition of specific 125I-CCK-8 binding; parameters: species or system rat (male Sprague-Dawley)
T2 construct: The whole pancreas was dissected free of fat tissue and was homogenized; from tissue; host or cells: whole pancreas of male Sprague-Dawley rats, homogenate membranes
T2 sequence (P30551 1-444): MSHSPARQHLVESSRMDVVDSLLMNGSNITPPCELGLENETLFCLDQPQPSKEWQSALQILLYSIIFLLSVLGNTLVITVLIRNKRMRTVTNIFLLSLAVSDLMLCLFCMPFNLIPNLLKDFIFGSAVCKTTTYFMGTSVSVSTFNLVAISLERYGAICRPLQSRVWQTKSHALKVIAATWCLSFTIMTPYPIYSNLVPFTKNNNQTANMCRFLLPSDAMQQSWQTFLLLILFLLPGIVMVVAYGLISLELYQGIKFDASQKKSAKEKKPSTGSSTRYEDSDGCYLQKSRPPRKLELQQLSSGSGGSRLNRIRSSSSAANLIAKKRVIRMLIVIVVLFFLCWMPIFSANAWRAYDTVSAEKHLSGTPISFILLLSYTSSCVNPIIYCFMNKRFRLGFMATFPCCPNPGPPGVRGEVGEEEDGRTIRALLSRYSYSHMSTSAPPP
Description: 1. CCK Receptor Binding (Pancreas)
CCK-8 sulphated was radiolabelled with ^125 I-Bolton Hunter reagent (2000 Ci/mmole). Receptor binding was performed according to Chang and Lotti (Proc. Natl. Acad. Sci. 83, 4923-4926, 1986) with minor modifications.
Male Sprague-Dawley rats (150-200 g) were sacrificed by decapitation. The whole pancreas was dissected free of fat tissue and was homogenized in 25 volumes of ice-cold 10 mM N-2-hydroxyethyl-piperazine-N'-2-ethane sulphonic acid (HEPES) buffer with 0.1% soya bean trypsin inhibitor (pH 7.4 at 25° C.) with a Kinematica Polytron. The homogenates were centrifuged at 47,800 g for 10 min. Pellets were resuspended in 10 volumes of binding assay buffer (20 mM (HEPES)), 1 mM ethylene glycol-bis-(β-aminoethylether-N,N'-tetraacetic acid) (EGTA), 5 mM MgCl2, 150 mM NaCl, bacitracin 0.25 mg/ml, soya bean trypsin inhibitor 0.1 mg/ml, and bovine serum albumin 2 mg/ml pH 6.5 at 25° C.) using a Teflon (trademark) homogenizer, 15 strokes at 500 rpm. The homogenate was further diluted in binding assay buffer to give a final concentration of 0.5 mg original wet weight/1 ml buffer. […] All assays were run in duplicate. The reaction mixtures were incubated at 25° C. for 2 hours and the reaction terminated by rapid filtration (Brandell 24 well cell harvester) over Whatman GF/C filters, washing 3×4 mls with ice-cold 100 Mm NaCl. The radioactivity on the filters was counted with a LKB gamma counter.

[1] = rat pancreas membranes, 50 pM 125I-CCK-8, 25° C., 2 hours, pH 6.5, read-out: IC50 125I-CCK Pancreas
[2] = guinea pig cortex membranes, 50 pM 125I-CCK-8, 25° C., 2 hours, pH 6.5, read-out: IC50 125I-CCK Brain

SMILES | pIC50 (CCK receptor (brain)) | pIC50 (CCK receptor (pancreas)) | pIC50 (CCK receptor (pancreas); [1]) | pIC50 (CCK receptor (brain); [2])
CN1C(=O)[C@H](NC(=O)Nc2cccc(Nc3nn[nH]n3)c2)N=C(c2ccccc2)c2ccccc21 [Example 8, (+)-N-[3(R)-2,3-Dihydro-1-methyl-2-oxo-5-phenyl-1H-1,4-benzodiazepin-3-yl]-N'-[3-{(tetrazol-5-yl)amino}phenyl]urea] | 8.24 | < 5.52 |  | 
Cc1ccc(NC(=O)N[C@@H]2N=C(c3ccccc3)c3ccccc3N(C)C2=O)cc1Nc1nn[nH]n1 [Example 12, (+)-N-[3(R)-2,3-Dihydro-1-methyl-2-oxo-5-phenyl-1H-1,4-benzodiazepin-3-yl]-N'-[4-methyl-3-{(tetrazol-5-yl)amino}phenyl]urea] | 8.96 | < 5.52 |  | 
CN1C(=O)[C@H](NC(=O)Nc2cccc(CNc3nn[nH]n3)c2)N=C(c2ccccc2)c2ccccc21 [Example 9, (+)-N-[3(R)-2,3-Dihydro-1-methyl-2-oxo-5-phenyl-1H-1,4-benzodiazepin-3-yl]-N'-[3-{(tetrazol-5-yl)aminomethyl}phenyl]urea] | 8.13 | < 5.52 |  | 
Cc1ccc(NC(=O)N[C@@H]2N=C(C3CCCCC3)c3ccccc3N(C)C2=O)cc1N(C)c1nn[nH]n1 [Example 11, (+)-N-[3(R)-5-Cyclohexyl-2,3-dihydro-1-methyl-2-oxo-1H-1,4-benzodiazepin-3-yl]-N'-[4-methyl-3-{N-methyl-N-(tetrazol-5-yl)amino}phenyl]urea] |  |  | 6.22 | 
CN1C(=O)C(NC(=O)Nc2cccc(Nc3nnn[nH]3)c2)N=C(C2CCCCC2)c2ccccc21 (racemic) [Example 2, N-[3(R,S)-5-Cyclohexyl-2,3-dihydro-1-methyl-2-oxo-1H-1,4-benzodiazepin-3-yl]-N'-[3-{(tetrazol-5-yl)amino}phenyl]urea] |  |  | 8.19 | 9.51
CCCN1C(=O)C(NC(=O)Nc2cccc(CNc3ncc[nH]3)c2)N=C(C2CCCCC2)c2ccccc21 (racemic) [Example 18, N-[3(R,S)-5-Cyclohexyl-2,3-dihydro-2-oxo-1-propyl-1H-1,4-benzodiazepin-3-yl]N'-[3-[(1H-imidazol-2-ylamino)methyl]phenyl]urea] |  |  | 6.96 | 7.85
Cc1ccc(NC(=O)N[C@@H]2N=C(C3CCCCC3)c3ccccc3N(C)C2=O)cc1Nc1nnn[nH]1 [Example 10, (+)-N-[3(R)-5-Cyclohexyl-2,3-dihydro-1-methyl-2-oxo-1H-1,4-benzodiazepin-3-yl]-N'-[4-methyl-3-{(tetrazol-5-yl)amino}phenyl]urea] |  |  | 6.10 | 10.38
CCCN1C(=O)C(NC(=O)Nc2cccc(Nc3ncc[nH]3)c2)N=C(C2CCCCC2)c2ccccc21 (racemic) [Example 19, N-[3(R,S)-5-Cyclohexyl-2,3-dihydro-2-oxo-1-propyl-1H-1,4-benzodiazepin-3-yl]N'-[3-[(1H-imidazol-2-yl)amino]phenyl]urea] |  |  | 8.88 | 7.08
CN1C(=O)[C@H](NC(=O)Nc2ccc3c(c2)N(c2nn[nH]n2)CC3)N=C(c2ccccc2)c2ccccc21 [Example 14, (+)-N-[3(R)-2,3-Dihydro-1-methyl-2-oxo-5-phenyl-1H-1,4-benzodiazepin-3-yl]-N'-[1-(tetrazol-5yl)indolin-6-yl]urea] | 9.96 |  |  | 
CN1C(=O)[C@H](NC(=O)Nc2cccc(CNc3nnn[nH]3)c2)N=C(C2CCCCC2)c2ccccc21 [Example 6, (+)-N-[3(R)-5-Cyclohexyl-2,3-dihydro-1-methyl-2-oxo-1H-1,4-benzodiazepin-3-yl]-N'-[3-{(tetrazol-5-yl)aminomethyl}phenyl]urea] |  |  | 6.82 | 9.55
CN1C(=O)[C@H](NC(=O)Nc2cccc(N(C)c3nnn[nH]3)c2)N=C(C2CCCCC2)c2ccccc21 [Example 4, (+)-N-[3(R)-5-Cyclohexyl-2,3-dihydro-1-methyl-2-oxo-1H-1,4-benzodiazepin-3-yl]-N'-[3-{N-methyl-N-(tetrazol-5-yl)amino}phenyl]urea] |  |  | 6.40 | 10.00
Cc1ccc(NC(=O)NC2N=C(c3ccccc3)c3ccccc3N(C(C)(C)C)C2=O)cc1Nc1nnn[nH]1 (racemic) [Example 16, N-[3(R,S)-1-tert-Butyl-2,3-dihydro-2-oxo-5-phenyl-1H-1,4-benzodiazepin-3-yl]-N'-[4-methyl-3-{(tetrazol-5-yl)amino}phenyl]urea] |  | 5.44 |  | 6.30
CN1C(=O)[C@H](NC(=O)Nc2cccc(N(C)c3nn[nH]n3)c2)N=C(c2ccccc2)c2ccccc21 [Example 7, (+)-N-[3(R)-2,3-Dihydro-1-methyl-2-oxo-5-phenyl-1H-1,4-benzodiazepin-3-yl]-N'-[3-{N-methyl-N-(tetrazol-5-yl)amino}phenyl]urea] | 9.24 | < 5.52 |  | 
CN1C(=O)C(C)(NC(=O)Nc2cccc(CNc3nnn[nH]3)c2)N=C(c2ccccc2)c2ccccc21 (racemic) [Example 15, N-[3-(R,S)-2,3-Dihydro-1,3-dimethyl-2-oxo-5-phenyl-1H-1,4-benzodiazepin-3-yl]-N'-[3-{(tetrazol-5-yl)aminomethyl}phenyl]urea] |  | 7.37 |  | 5.89
CN1C(=O)C(NC(=O)Nc2cccc(CNc3nnn[nH]3)c2)N=C(C2CCCCC2)c2ccccc21 (racemic) [Example 1, N-[3(R,S)-5-Cyclohexyl-2,3-dihydro-1-methyl-2-oxo-1H-1,4-benzodiazepin-3-yl]-N'-[3-{(tetrazol-5-yl)aminomethyl}phenyl]urea] |  |  | 8.02 | 9.09
CCCN1C(=O)C(NC(=O)Nc2cccc(N(C)c3nnn[nH]3)c2)N=C(N2CCN(C)CC2)c2ccccc21 (single isomer, unassigned; (-)) [Example 17, (-)-N-[2,3-Dihydro-5-(4-methylpiperazin-1-yl)-2-oxo-1-propyl-1H-1,4-benzodiazepin-3-yl]-N'-[3-{N-methyl-N-(tetrazol-5-yl)amino}phenyl]urea] |  |  | < 5.52 | 9.03
CN1C(=O)C(NC(=O)Nc2cccc(CNc3ncc[nH]3)c2)N=C(C2CCCCCC2)c2ccccc21 (racemic) [Example 20, N-[3(R,S)-5-Cycloheptyl-2,3-dihydro-1-methyl-2-oxo-1H -1,4-benzodiazepin-3-yl]N'-[3-[(1H-imidazol-2-ylamino)methyl]phenyl]urea] |  |  | 7.07 | 7.47
CN1C(=O)C(NC(=O)Nc2cccc(N(C)c3nnn[nH]3)c2)N=C(C2CCCCC2)c2ccccc21 (racemic) [Example 3, N-[3(R,S)-5-Cyclohexyl-2,3-dihydro-1-methyl-2-oxo-1H-1,4-benzodiazepin-3-yl]-N'-[3-{N-methyl-N-(tetrazol-5-yl)amino}phenyl]urea] |  |  | 8.00 | 9.96
